Source: patent US20130164259A1, “1,4-S[…] DERIVATIVES AND METHODS OF USE THEREOF” (priority 2009, published 2013)

Biological target: T1, HCV NS5B polymerase (NS5BΔCT21) (Hepatitis C virus genotype 1b, UniProt Q9WMX2)
T1 construct: A soluble C-terminal 21-amino acid truncated NS5B enzyme form; polyhistidine (C); made in house; host or cells: Escherichia coli
Assay: HCV NS5B Polymerase Inhibition Assay
Assay type: biochemical, HCV-Con 1 isolate
Text: A chemically synthesized 75-mer version, designated DCoH75, whose sequence matches the 3′-end of D-RNA, and DCoH75ddC, where the 3′-terminal cytidine of DCoH75 is replaced by dideoxycytidine, were used for assaying the NS5B enzyme activity as described in Ferrari et al., 12th International Symposium on HCV and Related Viruses, P-306 (2005). The sequence of the template RNA was: 5′-UGUGCCGGUCUUUCUGAACGGGAUAUAAACCUGGCCAGCUUCAUCGAACAAGUUGCCGUGUCUAUGACAUAGAUC-3′ (SEQ ID NO: 1). A soluble C-terminal 21-amino acid truncated NS5B enzyme form (NS5BΔCT21, from HCV-Con 1 isolate, genotype 1b, Genbank accession number AJ238799) was produced and purified from Escherichia coli as C-terminal polyhistidine-tagged fusion protein as described in Ferrari et al., J. Virol. 73:1649-1654 (1999). A typical assay contained 20 mM Hepes pH 7.3, 10 mM MgCl2, 60 mM NaCl, 100 μg/ml BSA, 20 units/ml RNasin, 7.5 mM DTT, 0.1 μM ATP/GTP/UTP, 0.026 μM CTP, 0.25 mM GAU, 0.03 μM RNA template, 20 μCi/ml [^33P]-CTP, 2% DMSO, and 30 or 150 nM NS5B enzyme. Reactions were incubated at 22° C. for 2 hours, then stopped by adding 150 mM EDTA, washed in DE81 filter plate in 0.5M di-basic sodium phosphate buffer, pH 7.0, and counted using Packard TopCount after the addition of scintillation cocktail. Polynucleotide synthesis was monitored by the incorporation of radiolabeled CTP. The effect of the Compounds of Formula (I) on the polymerase activity was evaluated by adding various concentrations of a Compound of Formula (I), typically in 10 serial 2-fold dilutions, to the assay mixture. The starting concentrations ranged from 200 μM to 1 μM. An IC50 value for the inhibitor, defined as the compound concentration that provides 50% inhibition of polymerase activity, was determined by fitting the cpm data to the Hill equation Y=100/(1+10̂((LogIC50−X)*HillSlope)), where X is the logarithm of compound concentration, and Y is the % inhibition. Ferrari et al., 12th International Symposium on HCV and Related Viruses, P-306 (2005) described in detail this assay procedure. It should be noted that such an assay as described is exemplary and not intended to limit the scope of the invention. The skilled practitioner can appreciate that modifications including but not limited to RNA template, primer, nucleotides, NS5B polymerase form, buffer composition, can be made to develop similar assays that yield the same result for the efficacy of the compounds and compositions described in the invention.
NS5B polymerase inhibition data was calculated for the compounds of the present invention using this method and is set forth in the table below.

## CSCc1nccc(N2CCN(c3cc(C(C)C)ccc3NC(=O)c3cccnc3C)CC2)n1 [Compound 58]
  IC50: 27 nM
